The values below come from patent US10166197B2, “Sugar ester nanoparticle stabilizers” (St. John's University, priority 2015, dated 2019).

The data set in a line: Dispersion test, USP apparatus II (paddle method), 0.45 μm filtration and HPLC. Type of data set: physicochemical. To be noted: 0.45 μm pore size filter.

SMILES strings stand for the structures.

Experimental: Dispersion tests were then run on each of the dosage forms using USP apparatus II (the paddle method). Dried samples corresponding to 20 mg of the lyophilized powder were weighed and mixed with 2% SLS and placed into 250 mL of dissolution media with a holding temperature at 37±0.5° C. The rotation speed of the paddle was set to 50 rpm. The dispersion test was performed in two steps: stimulated gastric fluid (pH 1.2) for up to 120 minutes, and changing the pH to pH 6.8 after that by adding 1N NaOH. This is to mimic the gastrointestinal pH conditions. Aliquots of the suspension were taken after 1, 3, 5, 10, 15, 30, 60, 120, 150, and 180 minutes. The aliquots were then filtered through a hydrophilic PTFE membrane filter with 0.45 μm pore size, diluted appropriately with an organic solvent to dissolve drug particles and analyzed for drug content by HPLC.
Dispersion tests were also performed on capsules and tablets of the lyophilized powder.

For `CC(C)(Sc1cc(C(C)(C)C)c(O)c(C(C)(C)C)c1)Sc1cc(C(C)(C)C)c(O)c(C(C)(C)C)c1` [neat probucol powder, probucol], the “drug dispersion (result in words)” value was “did not demonstrate any drug dispersion”.
